The experiment addresses T1, GCase (Homo sapiens, UniProt P04062).
T1 construct: endogenous in cells; host or cells: HeLa cells
T1 sequence (P04062 40-536): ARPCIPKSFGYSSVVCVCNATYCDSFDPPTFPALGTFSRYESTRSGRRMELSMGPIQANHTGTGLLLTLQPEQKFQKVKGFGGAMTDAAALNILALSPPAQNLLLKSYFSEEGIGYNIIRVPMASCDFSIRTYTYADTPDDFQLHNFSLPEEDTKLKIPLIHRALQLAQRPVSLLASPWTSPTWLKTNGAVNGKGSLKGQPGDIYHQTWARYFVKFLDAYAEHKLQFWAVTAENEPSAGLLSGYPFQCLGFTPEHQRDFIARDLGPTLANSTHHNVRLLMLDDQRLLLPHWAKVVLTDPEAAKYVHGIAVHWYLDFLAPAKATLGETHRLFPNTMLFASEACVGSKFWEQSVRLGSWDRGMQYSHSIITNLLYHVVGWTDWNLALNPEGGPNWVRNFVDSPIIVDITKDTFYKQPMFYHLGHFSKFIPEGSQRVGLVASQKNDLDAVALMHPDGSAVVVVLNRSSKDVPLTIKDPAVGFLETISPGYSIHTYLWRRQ
The experiment can be described thus: activation of GCase in a live cell PFB assay in HELA cells. It is filed as cell-based. The method, then:
Exemplary compounds were evaluated for activation of GCase in a live cell PFB assay in HELA cells (essentially as described in Ysselstein et al., “LRRK2 kinase activity regulates lysosomal glucocerebrosidase in neurons derived from Parkinson's disease patients” Nature Communications (2019) 10:5570). […] EC50 ranges: A: <10 μM; B: >10-50 μM; C: >50-100 μM; D: >100 μM.

Setting [1] is: activation of GCase, EC50 ranges.

A value given as a limit tells only on which side of the number the result lay.

What is called EC50 is the concentration needed to bring the measured effect to its halfway point. Higher therefore signals a need for much substance.

For the setting “EC50 given as range classes”, `O=C1N(c2cncc(C(F)(F)F)n2)C(=O)C2(CCN(c3cnc4cnn(CC(F)F)c4n3)CC2)N1Cc1cc(F)cc(F)c1` [Cmpd 820] returned an EC50 of less than 10 µM. `O=C1N(c2cnc3cnn(CC(F)F)c3n2)CCC12CCN(c1cncc(C(F)(F)F)c1)CC2` [Compound 122, 2-[1-(2,2-difluoroethyl)-1H-pyrazolo[3,4-b]pyrazin-6-yl]-8-[5-(trifluoromethyl)pyridin-3-yl]-2,8-diazaspiro[4.5]decan-1-one] registered a half-maximal effective concentration (EC50) under setting [1] of less than 10 µM. Still for that read-out and setting: the value for `Cc1nn(CC(F)F)c2nc(N3CCC4(CC3)CC(=O)N(c3ccc(C(F)(F)F)nc3)C4)cnc12` [Cmpd 258] was less than 10 µM.

The compound `COc1cccc(C(=O)N2CC3(CCN(c4cnc5cnn(CC(F)F)c5n4)C3)C2)c1` [Cmpd 380] had a 50% effective concentration (EC50) (EC50 given as range classes) of less than 10 µM. For `FC(F)Cn1ncc2ncc(N3CCC4(C3)CN(c3nccc(C(F)(F)F)n3)C4)nc21` [Cmpd 299], under setting [1], the half-maximal effective concentration (EC50) lay in the range of 10 to 50 µM. Still for that read-out and setting: to `O=C1N(c2nccc(C(F)(F)F)n2)CCC12CCN(c1ncc3cnn(CC(F)F)c3n1)CC2` [Cmpd 289] belongs 10 to 50 µM; to `FC(F)Cn1ncc2ncc(N3CCC4(CCN(c5ccnc(C(F)(F)F)c5)C4)C3)nc21` (stereo not shown) [Cmpd 472], more than 100 µM; to `O=C1CC2(CCN(c3cnc4cnn(CC(F)F)c4n3)C2)CN1c1ccnc(C(F)(F)F)c1` (stereo not shown) [Cmpd 494], less than 10 µM.

Where the note is “EC50 given as range classes”, `Cn1c(N2CCC3(CCN(c4cnc(C(F)(F)F)nc4)C3)CC2)nc2c(cnn2CC(F)(F)F)c1=O` [Cmpd 1016] came in with an EC50 of less than 10 µM.

`FC(F)(F)Cn1ncc2ncc(N3CCCC4(CC(Oc5cnccc5C(F)(F)F)C4)C3)nc21` (stereo not shown) [Compound 11, 6-[1-(2,2,2-trifluoroethyl)-1H-pyrazolo[3,4-b]pyrazin-6-yl]-2-{[4-(trifluoromethyl)pyridin-3-yl]oxy}-6-azaspiro[3.5]nonane] had a concentration for a half-maximal effect (EC50) under setting [1] of less than 10 µM.

Under setting [1], `O=C1CC2(CCN(c3cnc4cnn(CC(F)F)c4n3)CC2)CN1c1cncc(Cl)c1` [Cmpd 893] showed an EC50 of less than 10 µM. Still for that read-out and setting: the value for `FC(F)(F)c1cc(N2CC3(CCN(c4cnc5cnn(C6CCOCC6)c5n4)C3)C2)ccn1` [Cmpd 1090] was more than 100 µM; that for `FC(F)Cn1ncc2ncc(N3CC4(CC(COc5cccc(C(F)(F)F)n5)C4)C3)nc21` [Compound 134, 2-[1-(2,2-difluoroethyl)-1H-pyrazolo[3,4-b]pyrazin-6-yl]-6-({[6-(trifluoromethyl)pyridin-2-yl]oxy}methyl)-2-azaspiro[3.3]heptane] was less than 10 µM. `O=C1N(c2cnc(C(F)(F)F)nc2)C(=O)C2(CCN(c3cnc4cnn(CC(F)F)c4n3)CC2)N1Cc1cc(F)cc(F)c1` [Cmpd 819]: the half-maximal effective concentration (EC50) (EC50 given as range classes) was less than 10 µM.

On to `Fc1ccc(F)c(OC2CC3(CCCN(c4cnc5cnn(CC(F)(F)F)c5n4)C3)C2)c1` (stereo not shown) [Compound 30, 2-(2,5-difluorophenoxy)-6-[1-(2,2,2-trifluoroethyl)-1H-pyrazolo[3,4-b]pyrazin-6-yl]-6-azaspiro[3.5]nonane], for which the concentration giving a half-maximal response (EC50) under setting [1] lay in the range of 10 to 50 µM. The same measure, in the same setting: to `Cc1cc(N2CC3(CCN(c4ncc5cnn(C6COC6)c5n4)C3)C2)nc(C)n1` [Cmpd 643] belongs 10 to 50 µM. Turning to `FC(F)(F)c1ncc(N2CC3(CCN(c4cnc5cnn(C6COC6)c5n4)C3)C2)cn1` [Cmpd 427], the concentration giving a half-maximal response (EC50) (EC50 given as range classes) is 10 to 50 µM. In turn, `FC(F)(F)c1ccc(N2CCC3(CCN(c4cncc(-n5cncn5)n4)CC3)C2)cn1` [Cmpd 253] registered an EC50 under setting [1] of less than 10 µM. On the same count and under the same terms, to `COc1nn(CC(F)F)c2nc(N3CCC4(CCN(c5cc(C)nc(C(F)(F)F)n5)C4)CC3)cnc12` [Cmpd 1098] belongs less than 10 µM; to `FC(F)c1ccc(N2CCCC3(C2)CN(c2cnc4cnn(CC(F)(F)F)c4n2)C3)cn1` [Compound 158, 6-[6-(difluoromethyl)pyridin-3-yl]-2-[1-(2,2,2-trifluoroethyl)-1H-pyrazolo[3,4-b]pyrazin-6-yl]-2,6-diazaspiro[3.5]nonane], more than 100 µM; to `FC(F)(F)c1ccnc(N2CC3(CCN(c4cnc5cnn(C6COC6)c5n4)CC3)C2)c1` [Cmpd 493], less than 10 µM. The same measure, in the same setting: the value for `O=C1N(c2cccc(C(F)(F)F)n2)CCCC12CN(c1cnc3cnn(CC(F)F)c3n1)C2` [Compound 115, 2-[1-(2,2-difluoroethyl)-1H-pyrazolo[3,4-b]pyrazin-6-yl]-6-[6-(trifluoromethyl)pyridin-2-yl]-2,6-diazaspiro[3.5]nonan-5-one] was 10 to 50 µM; that for `FC(F)Cn1ncc2ncc(N3CC4(CCN(c5cc(C(F)(F)F)ccn5)CC4)C3)nc21` [Compound 3, 2-[1-(2,2-difluoroethyl)-1H-pyrazolo[3,4-b]pyrazin-6-yl]-7-[4-(trifluoromethyl)pyridin-2-yl]-2,7-diazaspiro[3.5]nonane] was less than 10 µM. Compound `FC(F)(F)c1cc(N2CC3(CCN(c4cncc(-c5nnc(C(F)(F)F)s5)n4)C3)C2)ccn1` [Cmpd 1023] had an EC50 (EC50 given as range classes) of less than 10 µM. Under setting [1], `O=C(c1ccc(C(F)(F)F)nc1)N1CC2(CCN(c3cnc4cnn(CC(F)F)c4n3)CC2)C1` [Cmpd 327] registered an EC50 of 10 to 50 µM. The same measure, in the same setting: the value for `Cc1nc(N2CC3(CCN(c4ncc5c(C)nn(C6COC6)c5n4)C3)C2)cc(C(F)(F)F)n1` [Cmpd 504] was 10 to 50 µM. Still for that read-out and setting: the value for `FC(F)Cn1ncc2ncc(N3CCC4(CCN(c5cc(C(F)(F)F)ccn5)CC4)C3)nc21` [Compound 16, 2-[1-(2,2-difluoroethyl)-1H-pyrazolo[3,4-b]pyrazin-6-yl]-8-[4-(trifluoromethyl)pyridin-2-yl]-2,8-diazaspiro[4.5]decane] was 10 to 50 µM. `Cc1nn(CC(F)F)c2nc(N3CC4(CC3=O)CN(c3ccnc(C(F)(F)F)c3)C4)cnc12` [Cmpd 1007] registered an EC50 (EC50 given as range classes) of less than 10 µM. Compound `FC(F)(F)Cn1ncc2ncc(N3CCC4(CCN(c5cnc(C(F)(F)F)nc5)C4)C3)nc21` (stereo not shown) [Cmpd 531] registered an EC50 under setting [1] of less than 10 µM. For `O=C1CC2(CCN(c3cncc(C(F)(F)F)c3)CC2)CN1c1cnc2cnn(CC(F)F)c2n1` [Compound 111, 2-[1-(2,2-difluoroethyl)-1H-pyrazolo[3,4-b]pyrazin-6-yl]-8-[5-(trifluoromethyl)pyridin-3-yl]-2,8-diazaspiro[4.5]decan-3-one], the EC50 under setting [1] lay in the range of 10 to 50 µM. The same measure, in the same setting: to `O=C1CC2(CCN(c3cnc4cnn(CC(F)F)c4n3)CC2)CN1Cc1cccc(C(F)(F)F)n1` [Cmpd 360] belongs less than 10 µM.

On to `O=C1CC2(CCN(c3cnc4cnn(CC(F)F)c4n3)CC2)CN1Cc1cnc(OCC(F)(F)F)nc1` [Cmpd 894], for which, under setting [1], the EC50 lay within 10 to 50 µM. The same measure, in the same setting: the value for `Cc1nc(N2CC3(CCN(c4cncc(-c5cnn(CC(F)F)c5)n4)C3)C2)cc(C(F)(F)F)n1` [Cmpd 1124] was 50 to 100 µM; that for `Cc1nc(C(F)(F)F)nc(N2CC3(CCN(c4cnc5cnn(CC(F)F)c5n4)C3)C2)c1F` [Cmpd 1138] was 10 to 50 µM. Still for that read-out and setting: the value for `Cc1nc(N2CCC3(CCN(c4cnc5cnn(CC(F)(F)F)c5n4)C3)C2)cc(C(F)(F)F)n1` (stereo not shown) [Cmpd 538] was 10 to 50 µM. The compound `O=S(=O)(c1cccc(Cl)c1)N1CC2(CCN(c3cnc4cnn(CC(F)F)c4n3)C2)C1` [Cmpd 418] came in with an EC50 (EC50 given as range classes) of less than 10 µM. With `Cc1nc(N2CCC3(C2)CN(c2ncc4c(C)nn(C5COC5)c4n2)C3)cc(C(F)(F)F)n1` [Cmpd 558], the EC50 under setting [1] was less than 10 µM. Still for that read-out and setting: the value for `Cc1cnc(C(F)(F)F)nc1N1CC2(CCN(c3cnc4cnn(CC(F)F)c4n3)C2)C1` [Cmpd 961] was 10 to 50 µM; that for `O=C1N(c2cc(C(F)F)ccn2)CCC12CCN(c1cnc3cnn(CC(F)F)c3n1)CC2` [Compound 165, 8-[1-(2,2-difluoroethyl)-1H-pyrazolo[3,4-b]pyrazin-6-yl]-2-[4-(difluoromethyl)pyridin-2-yl]-2,8-diazaspiro[4.5]decan-1-one] was less than 10 µM. Same read-out and setting: to `COCCn1ncc2ncc(N3CCC4(CCN(c5cc(C(F)(F)F)ccn5)C4)CC3)nc21` [Cmpd 750] belongs less than 10 µM; to `CCn1c(N2CCC3(CCN(c4cc(C)nc(C(F)(F)F)n4)C3)CC2)nc2c(cnn2CC(F)F)c1=O` [Cmpd 1105], less than 10 µM; to `O=C([C@H]1CCn2c1nccc2=O)N1CCC2(C1)CN(c1ccnc(C(F)(F)F)c1)C2` [Cmpd 1061], 50 to 100 µM. Still for that read-out and setting: the value for `CCOc1nn(CC(F)F)c2nc(N3CCC4(CN(c5ccnc(C(F)(F)F)c5)C4)C3)cnc12` [Cmpd 937] was less than 10 µM; that for `Cc1nn(C2COC2)c2nc(N3CCC4(CN(c5ccnc(C(F)(F)F)c5)C4)C3)cnc12` [Cmpd 931] was 10 to 50 µM. For the compound `CC[C@@H]1N(c2ccnc(C(F)(F)F)c2)C(=O)CC12CCN(c1cnc3cnn(CC(F)F)c3n1)CC2` [Cmpd 855], under setting [1], the EC50 fell in the range of 10 to 50 µM. The same measure, in the same setting: the value for `FC(F)Cn1ncc2ncc(N3CCC4(C3)CN(c3ncc(C(F)(F)F)cn3)C4)nc21` [Cmpd 319] was 10 to 50 µM; that for `Cc1cccc(-c2noc(C)c2C(=O)N2CCC3(CC2)CCN(c2cc(C(F)(F)F)ccn2)C3=O)c1` [Cmpd 267] was 10 to 50 µM; that for `FC(F)Cn1ncc2ncc(N3CCC4(CCN(c5cnc(C(F)(F)F)nc5)C4)C3)nc21` (stereo not shown) [Cmpd 481] was 10 to 50 µM.

In the case of `O=C1CC2(CCN(c3cnc4cnn(CC(F)F)c4n3)CC2)CN1Cc1ccc(OC(F)(F)F)cc1` [Cmpd 441], under setting [1], the EC50 was less than 10 µM.
